# Experiments:
# Brca1-mutant (Δ11) MEFs = test: Clonogenic survival and dose-response survival with 8-azaadenosine; format: cell-based, mouse; conditions: MEF Brca1-Δ11 vs Brca1-wildtype; 8 days clonogenic, 7 days dose-response
# Source text: (§1) FIG. 7. A. Clonogenic survival of Brca1-wildtype and Brca1-mutant (Δ11) MEFs exposed to 8-azaadenosine for 8 days. B. Dose-response survival curves of Brca1-wildtype and Brca1-mutant (Δ11) MEFs exposed to increasing concentrations of 8-azaadenosine for 7 days. C. Clonogenic survival of BRCA2-wildtype and BRCA2-knockout DLD1 cells exposed to 8-azaadenosine for 8 days. D. Dose-response survival curves of BRCA2-wildtype and BRCA2-knockout DLD1 cells exposed to increasing concentrations of 8-azaadenosine for 7 days. All graphs show median. Error bars represent Standard Deviation (SD).
# [1] = system: BRCA2-knockout DLD1 cells; test: as above; format: cell-based; conditions: DLD1 BRCA2-KO vs BRCA2-wildtype; 8 days clonogenic, 7 days dose-response
# Source text: as §1
smiles,measurement,setting,value
"Nc1ncnc2c1nnn2[C@@H]1O[C@H](CO)[C@@H](O)[C@H]1O [8-azaadenosine, 3-(β-D-Ribofuranosyl)-3H-[1,2,3]triazolo[4,5-d]pyrimidin-7-amine]","BRCA1 synthetic lethality (clonogenic survival, dose-response survival)",Brca1-mutant (Δ11) MEFs,elicited BRCA1 synthetic lethality
same,"BRCA2 synthetic lethality (clonogenic survival, dose-response survival)",[1],BRCA2 synthetic lethality

# — US20260265832A1, “ADAR1 INHIBITORS FOR TREATING CANCER” (INSTITUE OF CANCER RESEARCH ROYAL CANCER HOSPITAL, priority 2023, published 2026)
